Results from US12728120B2, “Prevention or treatment of brain disease and adverse effects of cholinesterase inhibitors” (DR. NOAH BIOTECH INC., priority 2021, dated 2026).

How the values were obtained:
[1] = system: cerebral infarction-reperfusion model in Sprague-Dawley rats; test: Rotarod test in MCAO-reperfusion stroke model; assay type: in vivo; details: for Rotarod score (fall latency normalized to day 1), mean value: I.V. daily, FIG. 15
Procedure: The Rotarod test was performed on the 1, 3, 7, 14, and 21 days after 45 minutes-MCAO (middle cerebral artery occlusion)-reperfusion modelling to induced ischemia (Brain Stroke). […] The animal was carefully placed on a rotating rod (JD-A-07RA5, BS Technolab Inc., Korea) and the time (second) that animal was fallen was measured. The speed of rotating rod was increased from 4 rpm to 40 rpm for 300 second. […] For rotarod latency test, Nested one-way ANOVA and Two-way ANOVA was used to analyze significance between the groups on each day. Statistical analysis was performed using Prism 9 (GraphPad Software Inc., San Diego, CA, USA) and statistical significance was set at a P-value of less than 0.05.

IL-6 = IL-6 ELISA in LPS-treated BV2 microglial cells; assay type: cell-based, mouse; details: BV2, 1 μg/ml LPS, 18 hours; FIG. 4
Procedure: Briefly, BV2 microglial cells were plated in 96-well plates at 2×10^5 cells/well in DMEM high glucose medium (Welgene, LM001-05) supplemented with 10% fetal bovine serum (FBS; YOUNG IN, US-FBS-500) and 1% penicillin-streptomycin (P-S; Gibco, 15070063).

EPO = EPO expression in brain (western blot), MCAO-reperfusion model; assay type: in vivo, Sprague-Dawley rats; details: 21 days after MCAO
Procedure: Brains were homogenized in lysate buffer with protease inhibitor cocktail on ice. […] Protein concentration was measured using DC (Bio-rad, #5000112) protein assay. Samples were loaded using the SDS-PAGE system (Bio-rad, #1658004 and #1645052) and transferred onto nitrocellulose membranes (Bio-rad, #17001917 and #1704272). The membranes were blocked for 1 hour at room temperature with Tris-buffered saline-Tween20 (TBS-T) containing 5% skim milk and then incubated with pAKT antibody (Cell signaling, #4060), AKT primary antibody (Santacruz, SC-81434), EPO primary antibody (SCBT, SC-5290), ERK (CST, #9102), pERK (CST, #9101) and GAPDH (Bioworld, #MBOO1H) in 5% skim milk overnight at 4° C. Next day, the membranes were washed 3 times in TBS-T for 5 minutes, incubated with horseradish peroxidase-conjugated (HRP-conjugated) secondary antibody or fluorescence conjugated secondary antibody for 1-2 hours, and then washed 3 times in TBS-T for 5 minutes again. After final wash, the membranes were developed for chemiluminescence or fluorescence system. The signals of chemiluminescence or fluorescence were acquired and quantified by using ECL solution (Bio-rad, #1705062), iBright 1500 (Invitrogen, #CL1500), and Odyssey CLx (LI-COR, #CLX-2383) imaging system.

PSD-95 = PSD-95 expression (western blot) in primary cultured neurons; assay type: cell-based, mice; details: mouse primary neuro-glia culture, 4 days treatment, β-actin normalized; FIG. 14B
Procedure: To evaluate the synaptic plasticity, primary neuro-glia culture was prepared from cortices of embryonic day 16 C57/BL6 mice. Cells were collected by mechanical dissection and chemical dissociation with trypsin and DNase treatment and cultured in Neurobasal (NB) and MEM media supplemented with 1% B-27, 2 mM L-glutamine, 5% Fetal Bovine Serum, 5% Horse Serum, 1×MEM-NEAA (non-essential amino acids), and 1% Penicillin-Streptomycin (PS). Cells were cultured in Poly-D-Lysine+Laminin-coated 6-well plates at 2×10^6 cells/well in growth media. After 3 days in vitro (DIV 3), media was changed to NB media supplemented with 2% B-27, 2 mM L-glutamine, and 1% PS. […] Protein was resolved by 8% SDS-PAGE electrophoresis, transferred to polyvinylidene difluoride membranes and blocked with 5% non-fat dry milk for 1 hour at RT. Membrane was immunoblotted using following antibodies; primary antibody: PSD-95 (Abcam, ab18258, 1:2,000), phospho-CREB (Millipore, #06-519, 1:2,000), β-actin (Cell signaling, #3700, 1:3,000), and secondary antibody:HRP-conjugated anti-mouse IgG (AbFrontier, LF-SA8001, 1:5,000), HRP-conjugated anti-rabbit IgG (AbFrontier, LF-SA8002, 1:5,000). Signal was visualized by chemiluminescence methods using ECL solution and imaged using ImageQuant LAS 500 system. […]

neuronal cells (SH-SY5Y) = test: ROS production (DCF-DA) in H2O2-treated SH-SY5Y cells; assay type: cell-based; details: 100 μM H2O2 24 hours, DONE alone 5 uM, NAC alone 5 uM, NDC = DONE 2.5 uM + NAC 2.5 uM, FIG. 3
Procedure: SH-SY5Y cells were plated in 96 well plates at 2×10^5 cells/well in DMEM supplemented with 10% fetal bovine serum (FBS; YOUNG IN, US-FBS-500) and 1% penicillin-streptomycin (P-S; Gibco, 15070063). Six hours after seeding, SH-SY5Y cells were treated with 100 μM H2O2 for 24 hours (Sigma, #323381) followed by incubation with DONE alone, NAC alone, and combination of DONE and NAC. After incubation, ROS activity in the cell was measured by adding DCF-DA (Thermo, #D399) containing media. Absorbance was measured using a Synergy HTX Multi-Mode reader (Biotek) with 465 nm excitation and 540 nm emission. Measured fluorescence was normalized to control as follows: (drug-treated group OD−DCF-DA alone O.D)/(control O.D−DCF alone O.D)*100.

Compound: CC(=O)N[C@@H](CS)C(=O)O [NAC, N-acetylcysteine]
- Rotarod score normalized to VEH (100%) ([1]; day 3 after MCAO): 139.30%
- Rotarod score (fall latency normalized to day 1), mean value ([1]; day 3 after MCAO): 23.39
- Rotarod score (fall latency normalized to day 1), mean value ([1]; day 7 after MCAO): 38.01
- Rotarod score normalized to VEH (100%) ([1]; day 14 after MCAO): 83.86%
- Rotarod score (fall latency normalized to day 1), mean value ([1]; day 14 after MCAO): 40.65
- Rotarod score normalized to VEH (100%) ([1]; day 21 after MCAO): 44.96%
- Rotarod score (fall latency normalized to day 1), mean value ([1]; day 21 after MCAO): 28.67
- IL-6, mean value relative to LPS (100%) (IL-6): 95.48%
- EPO expression normalized to VEH (100%) (EPO): 151.66%
- EPO expression, mean value (EPO; FIG. 18): 172.43
- PSD-95 expression, mean value normalized to untreated control (CTL 1.0) (PSD-95): 1.43
- ROS, mean value normalized to control (CTL 100%) (neuronal cells (SH-SY5Y)): 88.93%
